How the values were obtained:
[1] = test system: PTK2 high ovarian PDX OV2423; assay: PTK2 high ovarian PDX model OV2423, Compound 5 and carboplatin and/or paclitaxel; type: in vivo, mouse
Procedure: (§1) A subcutaneous xenograft tumor model of human tumor immunodeficient mice was established by cell inoculation: tumor cells in logarithmic growth phase were collected, counted, resuspended in 1×PBS, and the cell suspension concentration was adjusted to 2.5-5 ×10^7/mL. The tumor cells were inoculated subcutaneously in the right side of immunodeficient mice with a 1 mL syringe ([…]), 5-10×10^6/0.2 mL/mouse. All animal experiments were strictly in accordance with the specifications for the use and management of experimental animals in GenePharma Co., Ltd. and Suzhou Ascentage Pharma Co., Ltd. The calculation of relevant parameters refers to the Chinese NMPA “Guidelines for Non-Clinical Research Techniques of Cytotoxic Anti-tumor Drugs”.
(§2) Animal body weight and tumor size were measured twice weekly during the experiment. The state of the animal and the presence or absence of death were observed every day. The growth of tumor and the effects of treatment on normal behavior of animals were monitored routinely, specifically involving experimental animal activity, feeding and drinking, weight gain or loss, eyes, clothing hair and other abnormalities. The deaths and clinical symptoms observed during the experiment were recorded in the raw data. All operations for administration and measurement of mouse body weight and tumor volume were performed in a clean bench. According to the requirements of the experimental protocol, after the end of the last administration, plasma and tumor tissues were collected, weighed and photographed. The plasma and tumor samples were frozen at −80° C. for ready-to-use.
(§3) Tumor volume (TV) is calculated as: TV=a×b^2/2, wherein a and b represent the length and width of the tumor to be measured, respectively.
(§4) The relative tumor volume (RTV) is calculated as: RTV=Vt/V1, wherein V1 is the tumor volume at the start of grouping and administration, and Vt is the tumor volume measured on the t day after administration.
(§5) Change of body weight (%)=(measured body weight−body weight at the start of grouping)/body weight at the start of grouping×100%.
(§6) A dose of drug is considered to be severely toxic if the body weight of mouse is reduced by more than 20% or the number of drug-related deaths exceeds 20%.
(§7) According to the description by Clarke R., Issues in experimental design and endpoint analysis in the study of experimental cytotoxic agents in vivo in breast cancer and other models [J]. Breast Cancer Research & Treatment, 1997, 46(2-3): 255-278, synergy analysis was evaluated using the following formula: synergy factor=((A/C)×(B/C))/(AB/C); A=RTV value of drug A alone group; B=RTV value of drug B alone group; C=RTV value of the solvent control group, and AB=RTV value of the A and B combination group.
(§8) Use of mRECIST (Gao et al., 2015) measured tumor responses included stable disease (SD), partial tumor regression (PR), and complete regression (CR), determined by comparing tumor volume change at day t to its baseline: tumor volume change (%)=(Vt−V1)/V1. The BestResponse was the minimum value of tumor volume change (%) for t≥10. For each time t, the average of tumor volume changes from t=1 to t was also calculated. BestAvgResponse was defined as the minimum value of this average for t≥10. The criteria for response (mRECIST) were adapted from RECIST criteria (Gao et al., 2015; Therasse et al., 2000) and defined as follows: mCR, BestResponse<−95% and BestAvg Response<−40%; mPR, BestResponse<−50% and BestAvgResponse<−20%; mSD, BestResponse<35% and BestAvgResponse<30%; mPD, not otherwise categorized. SD, PR, and CR were considered responders and used to calculate response rate (%). […] Body weight of animals were monitored simultaneously. The change in body weight was calculated based on the animal weight of the first day of dosing (day 1). Tumor volume and changes in body weight (%) were represented as the mean±standard error of the mean (SEM).

[2] = test system: OVCAR3 s.c. ovarian xenograft; type: in vivo
Procedure: as §1, §2, §3, §4, §5, §6, §7, §8

A549 NSCLC xenograft = assay: s.c. A549 NSCLC lung cancer model, Compound 5 and panobinostat; type: in vivo, mouse
[3] = test system: colon CT26 syngeneic tumor; assay: s.c. syngeneic tumor model of colon CT26, Compound 5 and anti-PD-1 antibody; type: in vivo; details: for RTV on Day 12 after administration (mean ± standard error) / T/C on Day 12 after administration (%): alone or with anti-PD-1 10 mg/kg i.p. twice weekly
[4] = test system: TP53wt, BRAFv600E, NRASwt, PTENwt, CDKN2Amut C32 cutaneous melanoma; assay: C32 cutaneous melanoma model, Compound 5 and Dabrafenib + trametinib; type: in vivo
Procedure: In this experiment, a TP53wt , BRAFv600E , NRASwt, PTENwt, CDKN2Amut C32 cutaneous melanoma model (Wuxi Pharma Tech) was established to evaluate the anti-tumor effect of Compound 5 in combination with BRAFi (Dabrafenib)+MEKi (trametinib) (Selleck). The dosing regimen was as follows: • Compound 5: 50 mg/kg, PO QD 21 D, for a total of 25 days; • Dabrafenib +trametinib: Dabrafenib 30mg/kg,QD QD 21 D for a total of 25 days, trametinib 1 mg/kg
The dosing regimen of each drug in the dosing regimen for the combination is the same as the dosing regimen for the single drug.

[5] = test system: U-87-MG subcutaneous glioblastoma; assay: U-87-MG subcutaneous glioblastoma model, Compound 5 and Palbociclib; type: in vivo
Procedure: In this experiment, a U-87-MG subcutaneous glioblastoma model (Wuxi Pharma Tech) was established to evaluate the anti-tumor effect of Compound 5 in combination with Palbociclib/Trametinib/TMZ. The dosing regimen was as follows: • Compound 5: 100 mg/kg, PO QD 21 D; • Palbociclib: 20mg/kg,QD QD 21 D, • Trametinib: 0.5 mg/kg QD QD 21 D, • TMZ 50 mg/kg QD QD 21 D, The dosing regimen of each drug in the dosing regimen for the combination is the same as the dosing regimen for the single drug. [table]

[6] = Compound 5 50 mg/kg orally once per day, carboplatin 30 mg/kg i.p. once a week, paclitaxel 10 mg/kg i.v. once a week, 28 days
[7] = Compound 5 100 mg/kg orally once per day, paclitaxel 10 mg/kg i.v. once a week, carboplatin 30 mg/kg i.v. once a week
[8] = Compound 5 100 mg/kg orally once per day, panobinostat 3 mg/kg i.p. 5 days then 2 days break, 14 days
[9] = Compound 5 30 mg/kg orally once per day
[10] = Compound 5 100 mg/kg orally once per day
[11] = Compound 5 50 mg/kg PO QD, Dabrafenib 30 mg/kg QD, trametinib 1 mg/kg
[12] = Compound 5 100 mg/kg PO QD, Palbociclib 20 mg/kg QD

Cc1cc(Nc2ncc(Cl)c(Nc3ccccc3S(=O)(=O)C(C)C)n2)c(OC(C)C)cc1C1=CCN(C2CCOCC2)CC1 [Compound 5, 5-chloro-N^2-(2-isopropoxy-5-methyl-4-(1-(tetrahydro-2H-pyran-4-yl)-1,2,3,6-tetrahydropyridin-4-yl)phenyl)-N^4-(2-(isopropylsulfonyl)phenyl)pyrimidine-2,4-diamine]
RTV on Day 28 after administration (mean ± standard error) [1, 6]: 14.83 ± 3.19 | T/C on Day 28 after administration (%) [1, 6]: 78.97% | mRECIST ([1]; animals per class): 2/2 PD | antitumor activity (conclusion in words) ([1]; mouse, in vivo): minor antitumor activity | RTV on Day 35 after administration (mean ± standard error) [2, 7]: 13.66 ± 2.88 | T/C on Day 35 after administration (%) [2, 7]: 85.04% | mRECIST ([2]; animals per class): 5/5 PD | antitumor activity (conclusion in words) ([2]; mouse, in vivo): minor antitumor activity | Overall regression rate (ORR), % ([2]; proportion of animals with CR or PR): 0% | Disease control rate (DCR), % ([2]; proportion of animals with CR, PR or SD): 0% | RTV on Day 14 after administration (mean ± standard error) (A549 NSCLC xenograft; [8]): 3.21 ± 0.46 | T/C on Day 14 after administration (%) (A549 NSCLC xenograft; [8]): 89.54% | antitumor activity (conclusion in words) (A549 NSCLC xenograft; mouse, in vivo): minor antitumor activity | RTV on Day 12 after administration (mean ± standard error) [3, 9]: 29.9 ± 4.2 | T/C on Day 12 after administration (%) [3, 9]: 102.75% | RTV on Day 12 after administration (mean ± standard error) [3, 10]: 22.5 ± 2.2 | T/C on Day 12 after administration (%) [3, 10]: 77.32% | antitumor activity (conclusion in words) ([3]; mouse, in vivo): no antitumor activity | RTV % @ D25 [4, 11]: 17.80 ± 1.3% | T/C % @ D25 [4, 11]: 106.09% | antitumor activity (conclusion in words) ([4]; in vivo): no antitumor activity | RTV @ D15 [5, 12]: 18.1 ± 1.1 | T/C (%) @ D15 [5, 12]: 120.7% | mRECIST ([5]; animals per class): 5/5 PD | antitumor activity (conclusion in words) ([5]; in vivo): no antitumor activity

Reference: patent US20230381176A1, “A PHARMACEUTICAL COMPOSITION AND USE THEREOF FOR TREATMENT OF CANCER” (Ascentage Pharma (Suzhou) Co., Ltd., priority 2020, published 2023)
